Results reported in US20260125374A1, “PI3K-ALPHA INHIBITORS AND METHODS OF MAKING AND USING THE SAME” (Relay Therapeutics, Inc., priority 2021, published 2026).
Marks after values point to notes of the source that are not given here.

Experiment: Polymorph screening (equilibration, anti-solvent, slow evaporation, slow cooling, temperature cycling, heating-cooling; XRPD and SFC)
Type: physicochemical
Experimental: This polymorph screening program of compound I-1 free form was performed with two batches of the pure enantiomer. Both batches are crystalline and is assigned as Form A. The polymorphic behaviors of the enantiomer were investigated by equilibration at 25° C. and 50° C., equilibration under a temperature cycle, crystallization from hot saturated solutions by slow cooling, slow evaporation, precipitation by addition of anti-solvent, and DSC heating-cooling cycle experiments. Relative stability of identified polymorphs was investigated by competitive slurry experiments.
About 50 mg of I-1 Form A was weighed into a 2 mL glass vial and equilibrated in suitable amount of solvents (pretreated by molecular sieves) at 25° C. for 2 weeks with a stirring plate and with protection from light. Obtained suspensions were filtered with 0.45 μm nylon membrane and the solid parts (wet cake) were investigated by XRPD. When differences were observed, additional investigations were performed (e.g. DSC, TGA, ^1H-NMR, SFC).
About 50 mg of I-1 Form A was weighed into 2 mL glass vials and equilibrated in suitable amount of solvents (pretreated by molecular sieves) at 50° C. for 10 days with a stirring plate and with protection from light. Obtained suspensions were filtered with 0.45 μm nylon membrane and the solid parts (wet cake) were investigated by XRPD. When differences were observed, additional investigation was performed (e.g. DSC, TGA, ^1H-NMR, SFC).
I-1 Form A was dissolved in a good solvent. […] The solvents used were pretreated by molecular sieve. Precipitates were collected by filtration. The solid part (wet cake) was investigated by XRPD. […] When differences were observed, additional investigations were performed (e.g. DSC, TGA, ^1H-NMR, SFC).
Based on approximate solubility results, I-1 Form A was dissolved in suitable amount of solvents (pretreated by molecular sieves). Obtained solutions were filtered by 0.45 μm nylon filter. […] Solid residues were examined for their polymorphic form. When differences were observed, additional investigations were performed (e.g. DSC, TGA, ^1H-NMR, SFC).
Approximate 50 mg of batch I-1 Form A were dissolved in the minimal amount of selected solvents (without pretreatment by molecular sieves) at 50° C. Obtained solutions were filtered by 0.45 μm nylon filter. […] Precipitates were collected by filtration. The solid parts (wet cake) were investigated by XRPD. When differences were observed, additional investigations were performed (e.g. DSC, TGA, ^1H-NMR, SFC). When no precipitation was obtained or only a few solids were obtained, the solutions were placed at 5° C. for crystallization.
About 50 mg of I-1 Form A was equilibrated in different solvents (pretreated by molecular sieves) under a temperature cycle between 5° C. to 50° C. at a heating/cooling rate of 0.2° C./min for 10 cycles and with protection from light. After 10 cycles, precipitates were collected at 5° C. by filtration. The solid parts (wet cake) were investigated by XRPD. When differences were observed, additional investigations were performed (e.g. DSC, TGA, 1H-NMR, SFC).
Polymorphic behavior of I-1 Form A was investigated by two different heating-cooling cycles of DSC. Cycle 1:30° C. to 280° C. at 10° C./min; 280° C. to −20° C. at 20° C./min; reheat to 300° C. at 10° C./min. Cycle 2:30° C. to 280° C. at 10° C./min; 280° C. to-20° C. at 2° C./min; reheat to 300° C. at 10° C./min.

N#Cc1c(-c2cc(NC(=O)c3cc(F)cc(C(F)(F)F)c3)c3c(c2)C(=O)N[C@H]3c2cc(F)ccc2Cl)ccc2ncnn12 [Compound I-1, (R)-N-(3-(2-chloro-5-fluorophenyl)-6-(5-cyano-[1,2,4]triazolo[1,5-a]pyridin-6-yl)-1-oxoisoindolin-4-yl)-3-fluoro-5-(trifluoromethyl)benzamide]
XRPD (equilibration at 50° C. for 10 days in Ethyl acetate): I-1 Form A
XRPD (equilibration at 50° C. for 10 days in Isopropyl acetate): I-1 Form A
XRPD (equilibration at 50° C. for 10 days in MeOH/water(55:45, v/v) a.w. 0.7): I-1 Form A
XRPD (equilibration at 50° C. for 10 days in Methanol): III-1 Form A
ee %(SFC) (equilibration at 50° C. for 10 days in Methanol, SFC immediately after preparation): ee % (SFC): 48.4%*
XRPD (equilibration at 50° C. for 10 days in Methyl ethyl ketone): I-1 Form A
XRPD (equilibration at 50° C. for 10 days in THF/water(85:15, v/v) a.w. 0.9): I-1 Form A
XRPD (equilibration at 50° C. for 10 days in Water): I-1 Form A
XRPD (equilibration at 50° C. for 10 days in t-Butyl methyl ether): I-1 Form A
ee %(SFC) (equilibration at 50° C. in 1,4-Dioxane, added I-1 Form B seeds and stirred for 4 days): ee %(SFC): 80.1%*
ee %(SFC) (equilibration at 50° C. in 1,4-Dioxane, with molecular sieve and stirred for 6 days): ee %(SFC): 88.26%*
ee %(SFC) (equilibration at 50° C. in 1,4-Dioxane, without molecular sieve and stirred for 6 days): ee %(SFC): 81.26%*
ee %(SFC) (equilibration at 50° C. in THF, added I-1 Form B seeds and stirred for 4 days): ee %(SFC): 82.5%*
ee %(SFC) (equilibration in ACN/water(80:20, v/v), 25° C., pH 7.27, III-1 Form A seeds, 3 days): ee %(SFC): 90.9%*
ee %(SFC) (equilibration in ACN/water(80:20, v/v), 25° C., pH 7.27, III-1 Form A seeds, 8 days): ee %(SFC): 89.3%*
ee %(SFC) (equilibration in ACN/water(80:20, v/v), 50° C., pH 4.48, 3 days): ee %(SFC): 89.6%*
ee %(SFC) (equilibration in ACN/water(80:20, v/v), 50° C., pH 4.48, 5 days): ee %(SFC): 88.9%*
ee %(SFC) (equilibration in ACN/water(80:20, v/v), 50° C., pH 6.79, 3 days): ee %(SFC): 67.4%*
ee %(SFC) (equilibration in EtOH/water(50:50, v/v), 50° C., pH 6.82, 3 days): ee %(SFC): 91.6%*
ee %(SFC) (equilibration in Methanol, 50° C., pH 6.21, 3 days): ee %(SFC): 87.9%*
ee %(SFC) (slow cooling 50° C. to 5° C. from 1,4-Dioxane, SFC immediately after preparation): ee %(SFC): −0.2%*
Comments (outcome) (slow cooling 50° C. to 5° C. from ACN): clear solution
Comments (outcome) (slow cooling 50° C. to 5° C. from Acetone): clear solution
Comments (outcome) (slow cooling 50° C. to 5° C. from Benzyl alcohol): clear solution
Comments (outcome) (slow cooling 50° C. to 5° C. from MEK): clear solution
Comments (outcome) (slow cooling 50° C. to 5° C. from MeOH): clear solution
Comments (outcome) (slow cooling 50° C. to 5° C. from THF): clear solution
XRPD (slow evaporation at room temperature from 1,4-Dioxane): Amorphous form
XRPD (slow evaporation at room temperature from ACN): Amorphous form
XRPD (slow evaporation at room temperature from Acetone): Amorphous form
XRPD (slow evaporation at room temperature from MeOH): III-1D
XRPD (slow evaporation at room temperature from THF): Amorphous form
ee %(SFC) (slow evaporation from MeOH (not pretreated by molecular sieves) at 25° C. for 12 days): ee %(SFC): 98.0%*
ee %(SFC) (slow evaporation from MeOH/DCM(1:1, v/v), added I-1 Form D seeds): ee %(SFC): 88.9%*
ee %(SFC) (slow evaporation from MeOH, SFC immediately after preparation): ee % (SFC): 68.6%*
Comments (outcome) (temperature cycling 5° C. to 50° C. in 1,4-Dioxane, target concentration: 250 mg/mL): Clear solution, target concentration: 250 mg/mL
Comments (outcome) (temperature cycling 5° C. to 50° C. in THF/water(85:15, v/v) a.w. 0.9, target concentration: 250 mg/mL): Clear solution, target concentration: 250 mg/mL
Comments (outcome) (temperature cycling 5° C. to 50° C. in Tetrahydrofuran, target concentration: 250 mg/mL): Clear solution, target concentration: 250 mg/mL
XRPD (temperature cycling 5° C. to 50° C., 10 cycles, in 2-MeTHF): I-1 Form A
XRPD (temperature cycling 5° C. to 50° C., 10 cycles, in ACN/water(80:20, v/v) a.w. 0.9): I-1 Form A
XRPD (temperature cycling 5° C. to 50° C., 10 cycles, in Acetone): I-1 Form A
XRPD (temperature cycling 5° C. to 50° C., 10 cycles, in Acetone/water(60:40, v/v) a.w. 0.8): I-1 Form A
XRPD (temperature cycling 5° C. to 50° C., 10 cycles, in Acetonitrile): I-1 Form A
XRPD (temperature cycling 5° C. to 50° C., 10 cycles, in Benzyl alcohol): I-1 Form A
XRPD (temperature cycling 5° C. to 50° C., 10 cycles, in EtOH/water(50:50, v/v) a.w. 0.9): I-1 Form A
XRPD (temperature cycling 5° C. to 50° C., 10 cycles, in Ethanol): I-1 Form A
XRPD (temperature cycling 5° C. to 50° C., 10 cycles, in Ethyl acetate): I-1 Form A
XRPD (temperature cycling 5° C. to 50° C., 10 cycles, in MeOH/water(55:45, v/v) a.w. 0.7): I-1 Form A
ee %(SFC) (temperature cycling 5° C. to 50° C., 10 cycles, in MeOH/water(55:45, v/v), SFC immediately after preparation): ee %(SFC): 100.0%*
ee %(SFC) (temperature cycling 5° C. to 50° C., 10 cycles, in Methanol, SFC immediately after preparation): ee %(SFC): 89.4%*
XRPD (temperature cycling 5° C. to 50° C., 10 cycles, in Methyl ethyl ketone): I-1 Form A
